Measured values: ChEMBL document CHEMBL1136019, “Structure-based optimisation of 2-aminobenzylstatine derivatives: potent and selective inhibitors of the chymotrypsin-like activity of the human 20S proteasome” (Bioorg Med Chem Lett, 2002)

What follows are molecules tested against 20S proteasome (assay: Tested in vitro for inhibition of chymotrypsin like activity of purified human 20S proteasome).
Format: subcellular

Row | SMILES | IC50 [nM]
1 | COc1ccc(CNC(=O)[C@@H](NC(=O)[C@H](NCc2cc(OC)c(OC)cc2OC)[C@H](O)[C@H](Cc2ccccc2)NC(=O)[C@@H](NC(=O)Cc2cccc3ccccc23)C(C)(C)C)C(C)C)c(O)c1 | 29
2 | COc1ccc(CNC(=O)[C@@H](NC(=O)[C@H](NCc2ccc(N(C)C)cc2)[C@H](O)[C@H](Cc2ccccc2)NC(=O)[C@@H](NC(=O)Cc2cccc3ccccc23)C(C)(C)C)C(C)C)c(O)c1 | 160
3 | COc1ccc(CNC(=O)[C@@H](NC(=O)[C@H](NCc2cc(OC)c(OC)cc2OC)[C@H](O)[C@H](Cc2ccccc2)NC(=O)[C@@H](NC(=O)OCc2ccccc2)C(C)(C)C)C(C)C)c(O)c1 | 200
4 | COc1ccc(CN[C@@H](C(=O)N[C@H](C(=O)NCc2ccc(OC)cc2O)C(C)C)[C@H](O)[C@H](Cc2ccccc2)NC(=O)[C@@H](NC(=O)Cc2cccc3ccccc23)C(C)(C)C)cc1 | 100
5 | COc1ccc(CNC(=O)[C@@H](NC(=O)[C@H](NCc2ccc(-c3ccccc3)cc2)[C@H](O)[C@H](Cc2ccccc2)NC(=O)[C@@H](NC(=O)OCc2ccccc2)C(C)(C)C)C(C)C)c(O)c1 | > 20000
6 | COc1ccc(CNC(=O)[C@@H](NC(=O)[C@H](NCc2ccc(OC)c(OC)c2OC)[C@H](O)[C@H](Cc2ccccc2)NC(=O)[C@@H](NC(=O)OCc2ccccc2)C(C)(C)C)C(C)C)c(O)c1 | 100
7 | COc1ccc(CNC(=O)[C@@H](NC(=O)[C@H](NCc2ccc(OC)c(OC)c2OC)[C@H](O)[C@H](Cc2ccccc2)NC(=O)[C@@H](NC(=O)Cc2cccc3ccccc23)C(C)(C)C)C(C)C)c(O)c1 | 18
8 | COc1ccc(CNC(=O)[C@@H](NC(=O)[C@H](NCc2cc(OC)c(OC)c(OC)c2)[C@H](O)[C@H](Cc2ccccc2)NC(=O)[C@@H](NC(=O)Cc2cccc3ccccc23)C(C)(C)C)C(C)C)c(O)c1 | 7

The next lines start with the values.

Row | IC50 [nM] | SMILES
9 | > 20000 | COc1ccc(CNC(=O)[C@@H](NC(=O)[C@H](NCc2ccccc2)[C@H](O)[C@H](Cc2ccccc2)NC(=O)[C@@H](NC(=O)OCc2ccccc2)C(C)(C)C)C(C)C)c(O)c1
10 | 1600 | COc1ccc(CNC(=O)[C@@H](NC(=O)[C@H](NCc2ccc(OC)cc2OC)[C@H](O)[C@H](Cc2ccccc2)NC(=O)[C@@H](NC(=O)OCc2ccccc2)C(C)(C)C)C(C)C)c(O)c1
11 | 50 | COc1ccc(CNC(=O)[C@@H](NC(=O)[C@H](NCc2cc(OC)c(OC)c(OC)c2)[C@H](O)[C@H](Cc2ccccc2)NC(=O)[C@@H](NC(=O)OCc2ccccc2)C(C)(C)C)C(C)C)c(O)c1
12 | 1600 | COc1ccc(CNC(=O)[C@@H](NC(=O)[C@H](NCc2ccc(C(C)C)cc2)[C@H](O)[C@H](Cc2ccccc2)NC(=O)[C@@H](NC(=O)OCc2ccccc2)C(C)(C)C)C(C)C)c(O)c1
13 | 190 | COc1cc(CN[C@@H](C(=O)N[C@H](C(=O)NCc2ccc(OC)cc2O)C(C)C)[C@H](O)[C@H](Cc2ccccc2)NC(=O)[C@@H](NC(=O)OCc2ccccc2)C(C)(C)C)cc(OC)c1
14 | 150 | COc1ccc(CNC(=O)[C@@H](NC(=O)[C@H](NCc2ccc(OC)c(OC)c2)[C@H](O)[C@H](Cc2ccccc2)NC(=O)[C@@H](NC(=O)OCc2ccccc2)C(C)(C)C)C(C)C)c(O)c1
15 | > 20000 | COc1ccc(CNC(=O)[C@@H](NC(=O)[C@H](NCc2ccc(Oc3ccccc3)cc2)[C@H](O)[C@H](Cc2ccccc2)NC(=O)[C@@H](NC(=O)OCc2ccccc2)C(C)(C)C)C(C)C)c(O)c1
16 | 1500 | COc1cccc(CN[C@@H](C(=O)N[C@H](C(=O)NCc2ccc(OC)cc2O)C(C)C)[C@H](O)[C@H](Cc2ccccc2)NC(=O)[C@@H](NC(=O)OCc2ccccc2)C(C)(C)C)c1
17 | > 20000 | COc1ccc(CNC(=O)[C@@H](NC(=O)[C@H](NCc2ccccc2OC)[C@H](O)[C@H](Cc2ccccc2)NC(=O)[C@@H](NC(=O)OCc2ccccc2)C(C)(C)C)C(C)C)c(O)c1
18 | 600 | COc1ccc(CNC(=O)[C@@H](NC(=O)[C@H](NCc2ccc(N(C)C)cc2)[C@H](O)[C@H](Cc2ccccc2)NC(=O)[C@@H](NC(=O)OCc2ccccc2)C(C)(C)C)C(C)C)c(O)c1
19 | 900 | COc1ccc(CN[C@@H](C(=O)N[C@H](C(=O)NCc2ccc(OC)cc2O)C(C)C)[C@H](O)[C@H](Cc2ccccc2)NC(=O)[C@@H](NC(=O)OCc2ccccc2)C(C)(C)C)cc1
